Results published in ChEMBL document CHEMBL1201862, “PubChem BioAssay data set” (2004).
The source made the active and inactive calls.

How the values were obtained:
[1] = molecular target: T1, High affinity choline transporter 1 (Homo sapiens, UniProt Q9GZV3); test: CHT inhibitors, dose response, cell-based, 5-point CRC, membrane potential dye (AID 504840); type: functional
T1 sequence (Q9GZV3 whole entry): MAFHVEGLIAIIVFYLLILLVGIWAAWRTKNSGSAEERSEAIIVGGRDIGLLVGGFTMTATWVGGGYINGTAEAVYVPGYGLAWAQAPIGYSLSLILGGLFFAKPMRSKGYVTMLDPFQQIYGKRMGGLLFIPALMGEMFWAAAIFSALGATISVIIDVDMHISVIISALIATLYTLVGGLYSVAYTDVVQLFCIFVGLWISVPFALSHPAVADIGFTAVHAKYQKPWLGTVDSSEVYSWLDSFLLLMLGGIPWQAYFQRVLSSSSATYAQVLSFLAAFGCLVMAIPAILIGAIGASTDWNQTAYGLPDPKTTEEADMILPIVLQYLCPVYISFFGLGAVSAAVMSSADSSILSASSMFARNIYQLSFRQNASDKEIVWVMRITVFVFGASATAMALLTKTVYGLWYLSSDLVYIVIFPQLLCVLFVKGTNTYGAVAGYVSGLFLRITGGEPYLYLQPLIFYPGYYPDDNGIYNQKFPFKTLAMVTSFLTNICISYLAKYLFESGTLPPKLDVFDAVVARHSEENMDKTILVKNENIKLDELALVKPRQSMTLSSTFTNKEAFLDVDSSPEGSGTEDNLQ

[2] = inhibitors of intracellular T. cruzi replication, confirmation, NIH3T3 host cells, beta-gal luminescence (AID 2044); type: functional, cell-based;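 note: intracellular parasites grown in NIH/3T3 mouse fibroblasts as host cells; luminescent beta-galactosidase reporter signal from transgenic T. cruzi replicating inside host cells; inhibitors lower the luminescence signal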
[3] = cytotoxicity toward NIH3T3 fibroblasts, dose response, counter-screen, cell-based, ATP luminescence, mouse fibroblasts (AID 2010); type: functional;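 note: cells exposed to compound for about 90 hours before reading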
[4] = molecular target: T2, Microphthalmia-associated transcription factor (Homo sapiens, UniProt O75030); test: TRPM1 promoter luciferase signal decrease, dose response, MITF inhibitor project, cell-based, SK-MEL-5, cherry-picked, set 3 (AID 493073); type: functional
T2 sequence (O75030 whole entry): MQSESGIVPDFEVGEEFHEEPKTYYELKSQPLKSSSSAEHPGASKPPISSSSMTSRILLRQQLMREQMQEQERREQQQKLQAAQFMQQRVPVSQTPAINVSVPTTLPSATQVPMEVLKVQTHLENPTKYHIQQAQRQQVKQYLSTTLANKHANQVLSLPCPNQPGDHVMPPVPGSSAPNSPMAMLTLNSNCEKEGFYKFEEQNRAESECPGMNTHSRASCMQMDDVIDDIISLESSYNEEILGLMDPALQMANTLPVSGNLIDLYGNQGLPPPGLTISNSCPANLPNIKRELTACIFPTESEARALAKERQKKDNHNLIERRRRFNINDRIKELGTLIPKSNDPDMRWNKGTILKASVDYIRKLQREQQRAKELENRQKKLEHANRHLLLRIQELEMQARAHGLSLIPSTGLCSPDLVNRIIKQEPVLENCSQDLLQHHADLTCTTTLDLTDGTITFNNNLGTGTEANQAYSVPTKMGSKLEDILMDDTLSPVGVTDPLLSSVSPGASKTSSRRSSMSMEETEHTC

[5] = molecular target: T3, DNA repair protein RAD52 homolog (Homo sapiens, UniProt P43351); type: functional, biochemical
T3 sequence (P43351 whole entry): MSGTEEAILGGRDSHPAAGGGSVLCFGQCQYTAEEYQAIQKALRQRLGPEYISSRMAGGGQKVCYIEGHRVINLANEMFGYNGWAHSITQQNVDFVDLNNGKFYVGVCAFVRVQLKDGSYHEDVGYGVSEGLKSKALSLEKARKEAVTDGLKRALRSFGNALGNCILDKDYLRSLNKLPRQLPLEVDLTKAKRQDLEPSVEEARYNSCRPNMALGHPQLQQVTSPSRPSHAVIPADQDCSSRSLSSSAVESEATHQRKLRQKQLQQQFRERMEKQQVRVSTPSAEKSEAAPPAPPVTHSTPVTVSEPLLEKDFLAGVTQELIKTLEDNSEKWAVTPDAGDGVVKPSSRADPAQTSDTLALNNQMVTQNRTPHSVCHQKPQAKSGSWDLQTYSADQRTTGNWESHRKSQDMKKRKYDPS

[6] = test system: Escherichia coli; test: microbe, parasite or virus in culture
[7] = test system: HEK293; test: NOD1 signaling inhibitors, primary screen, cell-based, luminescence, uHTS (AID 1578); type: functional; settings: Homo sapiens
[8] = test system: HEK293; test: cells; type: functional, cell-based; settings: Homo sapiens
[9] = molecular target: T4, Heat shock factor protein 1 (Mus musculus, UniProt P38532); test: inhibition of MG132-induced HSE-luciferase signal, confirmation, cell-based, NIH3T3, luminescence, dose retest (AID 2382); type: functional;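 note: NIH3T3 fibroblasts with HSF1-driven luciferase reporter stressed by proteasome inhibitor MG132; luminescence from HSF1-driven luciferase expression after 8 hours of MG132 stress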
T4 sequence (P38532 whole entry): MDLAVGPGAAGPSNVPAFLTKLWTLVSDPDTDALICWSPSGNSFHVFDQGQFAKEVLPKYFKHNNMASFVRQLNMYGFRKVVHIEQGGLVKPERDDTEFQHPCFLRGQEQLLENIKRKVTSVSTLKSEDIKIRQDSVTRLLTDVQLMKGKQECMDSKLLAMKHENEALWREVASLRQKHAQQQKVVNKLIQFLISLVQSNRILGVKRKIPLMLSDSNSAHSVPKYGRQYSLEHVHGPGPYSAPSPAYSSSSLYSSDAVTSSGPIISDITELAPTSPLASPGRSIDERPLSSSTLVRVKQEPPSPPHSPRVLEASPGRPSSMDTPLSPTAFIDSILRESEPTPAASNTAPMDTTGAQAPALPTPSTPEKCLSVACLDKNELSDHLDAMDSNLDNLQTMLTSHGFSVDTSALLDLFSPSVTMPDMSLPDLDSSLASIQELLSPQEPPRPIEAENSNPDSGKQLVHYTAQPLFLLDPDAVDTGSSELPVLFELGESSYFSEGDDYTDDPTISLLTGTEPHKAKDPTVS

[10] = test system: HEK293; test: cells; type: functional, cell-based; settings: Homo sapiens; remark: listed apart in the source
[11] = molecular target: Nucleotide-binding oligomerization domain-containing protein 2 (Homo sapiens, UniProt Q9HC29); test: NOD2 signaling inhibitors, cell-based, luminescence, uHTS, HEK293 (AID 1566); type: functional
Sequence of Nucleotide-binding oligomerization domain-containing protein 2 (Q9HC29 whole entry, the tested form may be a part): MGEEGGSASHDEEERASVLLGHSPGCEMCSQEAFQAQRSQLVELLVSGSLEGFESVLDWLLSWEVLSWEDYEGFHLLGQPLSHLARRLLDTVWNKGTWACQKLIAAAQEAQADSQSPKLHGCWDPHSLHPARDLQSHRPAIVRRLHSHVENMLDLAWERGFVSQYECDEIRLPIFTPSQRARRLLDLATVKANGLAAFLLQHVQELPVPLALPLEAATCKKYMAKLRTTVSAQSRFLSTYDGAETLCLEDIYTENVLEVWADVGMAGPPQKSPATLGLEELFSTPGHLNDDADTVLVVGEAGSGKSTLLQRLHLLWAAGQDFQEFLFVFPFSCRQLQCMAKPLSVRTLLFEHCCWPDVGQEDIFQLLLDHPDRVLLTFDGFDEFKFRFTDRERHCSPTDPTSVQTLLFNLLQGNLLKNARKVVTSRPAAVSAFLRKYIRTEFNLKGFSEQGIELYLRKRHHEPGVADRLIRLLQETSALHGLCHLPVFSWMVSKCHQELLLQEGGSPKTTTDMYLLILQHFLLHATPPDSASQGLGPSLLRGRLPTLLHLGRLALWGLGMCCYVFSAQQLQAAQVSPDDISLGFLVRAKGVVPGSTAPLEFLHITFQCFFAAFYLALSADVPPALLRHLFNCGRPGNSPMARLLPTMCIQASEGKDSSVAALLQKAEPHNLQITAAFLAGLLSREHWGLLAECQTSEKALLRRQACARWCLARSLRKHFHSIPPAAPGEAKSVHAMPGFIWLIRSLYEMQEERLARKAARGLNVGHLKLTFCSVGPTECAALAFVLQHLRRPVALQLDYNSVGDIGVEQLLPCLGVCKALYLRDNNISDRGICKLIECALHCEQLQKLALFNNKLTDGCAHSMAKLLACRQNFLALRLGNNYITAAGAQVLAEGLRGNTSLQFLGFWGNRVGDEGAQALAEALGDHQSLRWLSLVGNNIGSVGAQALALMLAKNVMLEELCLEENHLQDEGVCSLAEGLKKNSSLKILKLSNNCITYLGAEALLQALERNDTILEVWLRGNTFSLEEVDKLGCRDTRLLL

[12] = test system: HEK293; test: NOD2 signaling inhibitors in MDP-stimulated cells, cell-based, uHTS, luminescence (AID 2001); type: functional; settings: Homo sapiens
[13] = test system: HEK293; test: cells; type: functional, cell-based; settings: Homo sapiens; remark: listed apart in the source
[14] = molecular target: Tumor necrosis factor (Homo sapiens, UniProt P01375); test: TNFa-triggered NF-kB activation inhibitors, SAR follow-up, cell-based, revised (AID 2337); type: functional
Sequence of Tumor necrosis factor (P01375 whole entry, the tested form may be a part): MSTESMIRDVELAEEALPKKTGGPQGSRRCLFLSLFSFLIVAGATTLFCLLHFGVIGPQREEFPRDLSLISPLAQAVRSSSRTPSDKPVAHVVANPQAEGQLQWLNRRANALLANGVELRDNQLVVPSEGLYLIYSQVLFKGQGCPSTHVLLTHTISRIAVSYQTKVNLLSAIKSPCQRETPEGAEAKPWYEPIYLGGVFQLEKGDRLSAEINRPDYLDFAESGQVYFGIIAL

[15] = molecular target: T5, Nucleotide-binding oligomerization domain-containing protein 1 (Homo sapiens, UniProt Q9Y239); test: NOD1 signaling inhibitors, SAR follow-up, revised (AID 2333); type: functional
T5 sequence (Q9Y239 whole entry): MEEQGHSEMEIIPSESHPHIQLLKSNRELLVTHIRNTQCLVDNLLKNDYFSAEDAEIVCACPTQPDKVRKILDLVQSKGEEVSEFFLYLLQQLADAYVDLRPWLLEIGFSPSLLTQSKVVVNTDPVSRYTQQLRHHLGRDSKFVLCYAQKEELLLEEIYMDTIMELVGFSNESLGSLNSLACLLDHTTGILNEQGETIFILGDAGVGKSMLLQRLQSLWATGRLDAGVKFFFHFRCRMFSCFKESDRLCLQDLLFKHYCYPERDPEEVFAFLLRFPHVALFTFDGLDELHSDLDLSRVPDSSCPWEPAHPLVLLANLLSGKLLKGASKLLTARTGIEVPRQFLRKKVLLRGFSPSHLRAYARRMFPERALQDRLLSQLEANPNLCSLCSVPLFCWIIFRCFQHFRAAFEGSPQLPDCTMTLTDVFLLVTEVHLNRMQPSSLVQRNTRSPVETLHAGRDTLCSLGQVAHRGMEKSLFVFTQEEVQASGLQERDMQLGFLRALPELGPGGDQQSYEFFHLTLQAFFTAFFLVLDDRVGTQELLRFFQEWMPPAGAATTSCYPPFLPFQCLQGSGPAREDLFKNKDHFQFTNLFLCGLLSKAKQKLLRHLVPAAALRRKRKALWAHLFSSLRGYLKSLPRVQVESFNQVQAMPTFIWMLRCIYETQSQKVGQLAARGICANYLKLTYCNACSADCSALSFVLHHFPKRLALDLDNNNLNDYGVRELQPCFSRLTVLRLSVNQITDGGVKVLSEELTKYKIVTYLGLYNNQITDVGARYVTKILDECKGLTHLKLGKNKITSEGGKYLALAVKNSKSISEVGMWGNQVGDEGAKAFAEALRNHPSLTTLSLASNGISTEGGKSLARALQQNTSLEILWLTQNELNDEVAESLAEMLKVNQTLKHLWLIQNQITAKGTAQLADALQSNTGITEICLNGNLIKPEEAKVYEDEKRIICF

[16] = cytotoxicity in HEK-293T cells, dose response, cytotoxicity control for TCR NF-kB inhibitor project, luminescence, T-cell screen hits (AID 489026); type: functional, cell-based;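 note: cells exposed to compound about 14 hours before the viability readout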
[17] = test system: HEK293; test: cells; settings: Homo sapiens

For `CCCn1c2ccccc2c2cnn(CC(=O)NCCCN3CCCC(C)C3)c(=O)c21` (configuration not stated), which IC50 [1] is on record?
The IC50 was 15.1 µM (active).

With `Cc1cc(C)c2nc3nc(C)cc(C)c3c(N)c2c1` as the compound, how does the EC50 [2] read?
The EC50 was 1.5 µM (active).

What about the EC50 [3] of the same compound?
The EC50 was > 60 µM (not active).

What about the AC50 [4] of the same compound?
Its AC50 is 5.72 µM (active).

And the AC50 [5]?
The AC50 was 1.12 µM (active).

For `COc1ccc(C(=O)Nc2cnn(Cc3ccc(Cl)cc3)c2)cc1OC`, which AC50 [6] is on record?
The AC50 was 96.5 µM (active).

For `Cc1ccc2oc(N=C(N)NC(=O)C(C)(C)C)nc2c1`, which EC50 [7] is on record?
Its EC50 is < 0.31 µM (inactive).

What about the IC50 [8] of the same compound?
The IC50 was < 0.312 µM (active).

What about the EC50 [9] of the same compound?
The EC50 was < 0.16 µM (active).

What about the IC50 [10] of the same compound?
The IC50 was > 20 µM (inactive).

And the EC50 [11]?
Its EC50 is 0.01 µM (active).

And the IC50 [12]?
Its IC50 is 4.71 µM (active).

What about the IC50 [13] of the same compound?
Its IC50 is > 20 µM (inactive).

What about the IC50 [14] of the same compound?
Its IC50 is < 0.0391 µM (active).

What about the IC50 [15] of the same compound?
Its IC50 is 0.0949 µM (active).

And the IC50 [16]?
Its IC50 is > 80 µM (inactive).

What about the IC50 [17] of the same compound?
The IC50 was > 20 µM (inactive).
